Laboratory results taken from ChEMBL document CHEMBL5375986, “Discovery of Lead 2-Thiazolylhydrazones with Broad-Spectrum and Potent Antifungal Activity” (J Med Chem, 2023).
Values after ≈ are worked out from the molar mass of the structure shown.

Assays:
[1] = system: Nakaseomyces glabratus; experiment: Antifungal activity against Candida glabrata ATCC 2001 assessed as inhibition of fungal growth incubated for 24 to 48 hrs by CLSI protocol based broth microdilution method; type: functional; details: time 24-48 hrs
[2] = system: Cryptococcus neoformans; experiment: Antifungal activity against Cryptococcus neoformans ATCC 24067 assessed as inhibition of fungal growth incubated for 24 to 48 hrs by CLSI based broth microdilution method; type: functional; details: time 24-48 hrs
[3] = system: Pichia kudriavzevii; experiment: Antifungal activity against Candida krusei ATCC 20298 assessed as inhibition of fungal growth incubated for 24 to 48 hrs by CLSI protocol based broth microdilution method; type: functional; details: time 24-48 hrs
[4] = Antifungal activity against Cryptococcus gattii ATCC 24065 assessed as inhibition of fungal growth incubated for 24 to 48 hrs by CLSI protocol based broth microdilution method; type: functional, Cryptococcus gattii VGI; details: time 24-48 hrs
[5] = system: Candida parapsilosis; experiment: Antifungal activity against Candida parapsilosis ATCC 22019 assessed as inhibition of fungal growth incubated for 24 to 48 hrs by CLSI protocol based broth microdilution method; type: functional; details: Lodderomyces parapsilosis, time 24-48 hrs
[6] = system: [Candida] auris; experiment: Antifungal activity against Candida auris COLO 01 assessed as inhibition of fungal growth incubated for 24 to 48 hrs by CLSI protocol based broth microdilution method; type: functional; details: Candidozyma auris, time 24-48 hrs
[7] = system: Candida tropicalis; experiment: Antifungal activity against Candida tropicalis ATCC 750 assessed as inhibition of fungal growth incubated for 24 to 48 hrs by CLSI protocol based broth microdilution method; type: functional; details: time 24-48 hrs
[8] = system: Candida albicans; experiment: Antifungal activity against Candida albicans SC5314 assessed as inhibition of fungal growth incubated for 24 to 48 hrs by CLSI protocol based broth microdilution method; type: functional; details: time 24-48 hrs
[9] = Antifungal activity against Cryptococcus gattii VGI assessed as inhibition of fungal growth; type: functional
[10] = system: Candida albicans; experiment: Antifungal activity against Candida albicans assessed as inhibition of fungal growth; type: functional
[11] = system: Cryptococcus neoformans; experiment: Antifungal activity against Cryptococcus neoformans assessed as inhibition of fungal growth; type: functional
[12] = Cytotoxicity against human PBMC cells assessed as inhibition of cell growth incubated for 24 to 48 hrs by MTT assay; type: toxicity, cell-based

MIC [1]	MIC [2]	MIC [3]	MIC [4]	MIC [5]	MIC [6]	MIC [7]	MIC [8]	MIC [9]	MIC [10]	MIC [11]	SMILES	IC50 [12]
50.8 µM (≈ 15.6 µg/mL)	3.2 µM (≈ 0.984 µg/mL)	1.6 µM (≈ 0.492 µg/mL)	3.2 µM (≈ 0.984 µg/mL)	1.6 µM (≈ 0.492 µg/mL)	0.8 µM (≈ 0.246 µg/mL)	6.3 µM (≈ 1.94 µg/mL)	3.2 µM (≈ 0.984 µg/mL)	–	–	–	C/C(CCC(=O)O)=N\Nc1nc(-c2ccc(F)cc2)cs1	–
42.4 µM (≈ 15.6 µg/mL)	2.6 µM (≈ 0.957 µg/mL)	1.3 µM (≈ 0.479 µg/mL)	1.3 µM (≈ 0.479 µg/mL)	1.3 µM (≈ 0.479 µg/mL)	0.3 µM (≈ 0.11 µg/mL)	2.6 µM (≈ 0.957 µg/mL)	0.3 µM (≈ 0.11 µg/mL)	–	–	–	C/C(CCC(=O)O)=N\Nc1nc(-c2ccc(Br)cc2)cs1	–
–	11.1 µM (≈ 3.1 µg/mL)	28 µM (≈ 7.82 µg/mL)	5.7 µM (≈ 1.59 µg/mL)	–	7 µM (≈ 1.96 µg/mL)	112 µM (≈ 31.3 µg/mL)	28 µM (≈ 7.82 µg/mL)	–	–	–	C/C(=N\Nc1nc(-c2ccc(F)cc2)cs1)C(=O)O	–
–	22 µM (≈ 6.3 µg/mL)	109 µM (≈ 31.3 µg/mL)	175 µM (≈ 50 µg/mL)	–	13.7 µM (≈ 3.92 µg/mL)	> 125 µM	109 µM (≈ 31.3 µg/mL)	–	–	–	C/C(=N\Nc1nc(-c2ccc(C#N)cc2)cs1)C(=O)O	–
–	–	–	–	–	–	–	–	0.12 µM (≈ 0.0344 µg/mL)	1.95 µM (≈ 0.558 µg/mL)	0.12 µM (≈ 0.0344 µg/mL)	CC(CCO)=NNc1nc(-c2ccc(C#N)cc2)cs1	–
–	0.7 µM (≈ 0.212 µg/mL)	6.4 µM (≈ 1.94 µg/mL)	0.3 µM (≈ 0.091 µg/mL)	–	3.2 µM (≈ 0.971 µg/mL)	51.4 µM (≈ 15.6 µg/mL)	6.4 µM (≈ 1.94 µg/mL)	–	–	–	C/C(CCC(=O)O)=N\Nc1nc(-c2ccc(C)cc2)cs1	–
–	5.4 µM (≈ 1.6 µg/mL)	26.4 µM (≈ 7.81 µg/mL)	5.4 µM (≈ 1.6 µg/mL)	–	6.6 µM (≈ 1.95 µg/mL)	106 µM (≈ 31.3 µg/mL)	26.4 µM (≈ 7.81 µg/mL)	–	–	–	C/C(=N\Nc1nc(-c2ccc(Cl)cc2)cs1)C(=O)O	–
–	49.7 µM (≈ 15.6 µg/mL)	99.4 µM (≈ 31.2 µg/mL)	24.8 µM (≈ 7.8 µg/mL)	24.8 µM (≈ 7.8 µg/mL)	24.8 µM (≈ 7.8 µg/mL)	> 125 µM	49.7 µM (≈ 15.6 µg/mL)	–	–	–	CCOC(=O)/C(C)=N/Nc1nc(-c2ccc(C#N)cc2)cs1	–

The next lines start with the compound.

SMILES	MIC [1]	MIC [2]	MIC [3]	MIC [4]	MIC [5]	MIC [6]	MIC [7]	MIC [8]	MIC [9]	MIC [10]	MIC [11]	IC50 [12]
CCOC(=O)C(C)=NNc1nc(-c2ccc(F)cc2)cs1	> 125 µM	> 125 µM	102 µM (≈ 31.3 µg/mL)	> 125 µM	> 125 µM	50.8 µM (≈ 15.6 µg/mL)	> 125 µM	> 125 µM	–	–	–	–
CCOC(=O)c1sc(N/N=C\C2CCCCC2)nc1C	> 125 µM	> 125 µM	> 125 µM	> 125 µM	> 125 µM	> 125 µM	> 125 µM	> 125 µM	–	–	–	–
COc1ccc(-c2csc(N/N=C(\C)C(=O)O)n2)cc1	–	–	56.6 µM (≈ 16.5 µg/mL)	–	–	13.4 µM (≈ 3.9 µg/mL)	56.6 µM (≈ 16.5 µg/mL)	26.8 µM (≈ 7.81 µg/mL)	–	–	–	–
CCN1CCCC(/C=N/Nc2nc(-c3ccc(Br)cc3)cs2)C1 (stereo not drawn)	> 125 µM	72.9 µM (≈ 28.7 µg/mL)	2.5 µM (≈ 0.983 µg/mL)	72.9 µM (≈ 28.7 µg/mL)	19.9 µM (≈ 7.83 µg/mL)	19.9 µM (≈ 7.83 µg/mL)	79.7 µM (≈ 31.4 µg/mL)	39.8 µM (≈ 15.7 µg/mL)	–	–	–	–
CC[C@H](C)C[C@H](C)CCCCCCCCC(=O)N[C@H]1C[C@@H](O)[C@@H](NCCN)NC(=O)[C@@H]2[C@@H](O)CCN2C(=O)[C@H]([C@H](O)CCN)NC(=O)[C@H]([C@H](O)[C@@H](O)c2ccc(O)cc2)NC(=O)[C@@H]2C[C@@H](O)CN2C(=O)[C@H]([C@@H](C)O)NC1=O [CASPOFUNGIN]	–	–	–	–	–	0.1 µM (≈ 0.109 µg/mL)	–	–	–	–	–	–
Nc1ccn([C@@H]2O[C@H](CO)[C@@H](O)[C@@H]2O)c(=O)n1 [CYTARABINE]	–	–	–	–	–	–	–	–	–	–	–	181 µM
CCOC(=O)c1sc(NN=C2CCOCC2)nc1C	> 125 µM	> 125 µM	> 125 µM	> 125 µM	> 125 µM	> 125 µM	> 125 µM	> 125 µM	–	–	–	–
CCOC(=O)/C(C)=N/Nc1nc(-c2ccc(Br)cc2)cs1	21.2 µM (≈ 7.81 µg/mL)	84.9 µM (≈ 31.3 µg/mL)	10.6 µM (≈ 3.9 µg/mL)	84.9 µM (≈ 31.3 µg/mL)	84.9 µM (≈ 31.3 µg/mL)	21.2 µM (≈ 7.81 µg/mL)	21.2 µM (≈ 7.81 µg/mL)	84.9 µM (≈ 31.3 µg/mL)	–	–	–	–
COc1ccc(-c2csc(N/N=C/C3CCCCC3)n2)cc1	–	–	–	–	–	–	–	–	1.58 µM (≈ 0.498 µg/mL)	–	0.79 µM (≈ 0.249 µg/mL)	–
CCOC(=O)/C(C)=N/Nc1nc(-c2ccc(OC)cc2)cs1	> 125 µM	> 125 µM	> 125 µM	> 125 µM	> 125 µM	> 125 µM	> 125 µM	> 125 µM	–	–	–	–
C(=N\Nc1nc(-c2ccccc2)cs1)/C1CCCCC1	–	–	–	–	–	–	–	–	0.9 µM (≈ 0.257 µg/mL)	–	0.9 µM (≈ 0.257 µg/mL)	–
